Literature values as cited in patent US20100226886A1, “Combinations of MTP Inhibitors with Cholesterol Absorption Inhibitors or Interferon for Treating Hepatitis C” (priority 2007, published 2010).
Entries after “also recorded” stand apart in the source; their conditions may differ. Read-outs that look alike come from different tables or passages of the source.

Tests used:
[1] = clinical studies, 80 mg/day or greater
[2] = animal model for homozygous familial hypercholesterolemia; for example at 25 mg/day
[3] = in vivo

In the case of `Cc1cc(C)c2c3ccccc3n(Cc3ccc([C@@H](C(=O)N[C@H](CO)c4ccccc4)C4CCCC4)cc3)c2n1` [implitapide, (2S)-2-cyclopentyl-2-[4-[(2,4-dimethyl-9H-pyrido[2,3-b]indol-9-yl)methyl]phenyl]-N-[(1S)-2-hydroxy-1-phenylethyl]ethanamide], the adverse events (80 mg/day or greater (80 mg/day and 160 mg/day)) is listed as “gastrointestinal disturbances, abnormalities in liver function, and hepatic steatosis; also recorded: gastrointestinal disorders, abnormalities in liver function and/or hepatic steatosis” and the efficacy for hypercholesterolemia [1] is listed as “therapeutically effective for hypercholesterolemia”.

In the case of `O=C(NC1CCN(CCCCC2(C(=O)NCC(F)(F)F)c3ccccc3-c3ccccc32)CC1)c1ccccc1-c1ccc(C(F)(F)F)cc1` [BMS-201038, N-(2,2,2-Trifluorethyl)-9-[4-[4-[[[4′-(trifluoromethyl) [1,1′biphenyl]-2-Yl]carbonyl]amino]-1-piperidinyl]butyl]9H-fluorene-9-carboxamide], the plasma cholesterol levels [2] is given as “effectively reduced plasma cholesterol levels in a dose dependent manner”, the adverse events (25 mg/day) is given as “gastrointestinal disturbances, abnormalities in liver function, and hepatic steatosis” and the adverse events (25 mg/day, listed as AEGR-733) is given as “gastrointestinal disorders, abnormalities in liver function and/or hepatic steatosis”.

For `NC(=O)c1ncn([C@@H]2O[C@H](CO)[C@@H](O)[C@H]2O)n1` [ribavirin], the “increase of sustained response rate” value (HCV; ribavirin added to interferon or peginterferon) is listed as “two- to three-fold”, the “effect on HCV” value (HCV; ribavirin by itself) is listed as “little effect on HCV” and the “side effects in patients” value [3] is listed as “red cell haemolysis to a variable degree in almost all patients”.

For Alpha interferon, the “side effects in patients” value [3] is listed as “multiple neuropsychiatric effects”.
